Data taken from paper PMC4263137, “Positron emission tomography and functional characterization of a complete PBR/TSPO knockout” (Nature Communications, 2014).

Molecular target: T1, PBR/TSPO (18-kDa translocator protein) (Mus musculus, UniProt P50637)
T1 construct: native protein in kidney and testis membranes of Tspo+/+ mice
Assay: [3H]PK11195 saturation radioligand binding on tissue membranes; autoradiography; no binding in Tspo-/- mice

T1 sequence (P50637 whole entry): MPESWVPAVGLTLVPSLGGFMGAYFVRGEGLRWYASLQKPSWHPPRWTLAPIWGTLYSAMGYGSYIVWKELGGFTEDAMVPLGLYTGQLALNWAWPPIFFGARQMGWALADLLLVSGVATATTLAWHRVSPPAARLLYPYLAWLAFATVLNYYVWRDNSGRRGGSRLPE

- Kd: 0.0129 µM
Structure (SMILES): CCC(C)N(C)C(=O)c1cc2ccccc2c(-c2ccccc2Cl)n1 (stereo not shown) [PK11195, 1-(2-chlorophenyl)-N-methyl-(1-methylpropyl)-3 isoquinolinecarboxamide]
